The assay concerns H9 cells. Description: qHTS for survival of dissociated H9 cells (CellTiter-Glo, 24 hours after seeding). It is filed as cell-based, human. The settings on record: for AC50: CellTiter-Glo 24 hours after seeding, read-out: AC50 (concentration at 50% efficacy). The text has this: FIG. 2 schematically illustrates qHTS procedure.
All the screed compounds were received pre-plated at the pre-determined concentrations. […] Curve classification is explained in Huang et al. “Chemical genomics profiling of environmental chemical modulation of human nuclear receptors” Environ. Health. Perspect.

Setting [1] is: H9 cell survival normalized to 10 μM Y-27632 (taken to be 100%).
The mark [2] stands for this setting: H9 cell survival, normalized to 10 μM Y-27632.
[3] abbreviates: Homo sapiens, H9, 24 h, H9 cell survival normalized to 10 μM Y-27632 (taken to be 100%), read-out: Max (maximum activity value from all tested concentrations).
Where [4] appears, read: Homo sapiens, H9, 24 h, H9 cell survival.
Setting [5] is: Homo sapiens, H9, 24 h, H9 cell survival, normalized to 10 μM Y-27632, read-out: Efficacy (activity range between predicted activities at zero and infinite doses, Hill equation).

“And” between values parts separate entries of the source, which are not always exact repeats. Equal values may be shown once. Read-outs that look alike come from different tables or passages of the source.

On to `CC1CN(S(=O)(=O)c2cccc3cnccc23)CCN1.Cl.Cl` (stereo not drawn) [1-05-IsoquinolinylstilfonyI)-3-methylpiperazine dihydroehloride], for which the “Max (maximum activity value from all tested concentrations)” value under setting [1] is on record as 100.6%. Also, where the note is “H9 cell survival”, the AC50 was found to be 20.6 µM. In addition, the “Efficacy (activity range between predicted activities at zero and infinite doses, Hill equation)” value under setting [2] is 102.

As for `CC1(C)CC[C@]2(C(=O)O)CC[C@]3(C)C(=CC[C@@H]4[C@@]5(C)CC[C@H](O)C(C)(C)[C@@H]5CC[C@]43C)[C@@H]2C1` [Oleanolic acid], the Emax under setting [3] amounted to 20.3% and the Emax under setting [5] is -10.7%. Besides, under setting [4], the AC50 came to 0.37 µM.

On to `C[C@@H]1O[C@@H](O[C@H]2[C@H](O[C@H]3[C@H](O[C@H]4CC[C@@]5(C)C(CC[C@]6(C)C5CC=C5[C@@H]7CC(C)(C(=O)O)C[C@@H](O)[C@]7(C)CC[C@]56C)[C@@]4(C)CO)O[C@H](C(=O)O)[C@@H](O)[C@@H]3O)O[C@H](CO)[C@H](O)[C@@H]2O)[C@H](O)[C@H](O)[C@H]1O` (stereo partly drawn) [NCGC00385739-01], for which, under setting [1], the “Max (maximum activity value from all tested concentrations)” value came out at 23.02%. Moreover, under “H9 cell survival”, the AC50 turned out to be 3.13 µM. In addition, the “Efficacy (activity range between predicted activities at zero and infinite doses, Hill equation)” value under setting [2] was 24.5.

Regarding `C[S+]([O-])c1ccc(-c2nc(-c3ccncc3)c(-c3ccc(F)cc3)[nH]2)cc1` (stereo not drawn) [SB-203580], the Emax runs as follows: (Homo sapiens, H9, 24 h, read-out: Efficacy (activity range between predicted activities at zero and infinite doses, Hill equation)) 37.4%; (Homo sapiens, H9, 24 h, read-out: Max (maximum activity value from all tested concentrations)) 35.6%. Where the note is “Homo sapiens, H9 cell survival”, the AC50 turned out to be 15.2 µM.

Consider `CC(=O)O[C@H]1C(=O)[C@]2(C)C(O)C[C@H]3OC[C@@]3(OC(C)=O)[C@H]2[C@H](OC(=O)c2ccccc2)[C@]2(O)C[C@H](O)C(C)=C1C2(C)C` (stereo partly drawn) [NCGC00384655-01], for which, under setting [1], the “Max (maximum activity value from all tested concentrations)” value amounted to 23.91%. In addition, where the note is “H9 cell survival”, the AC50 came to 1.74 µM. In addition, the “Efficacy (activity range between predicted activities at zero and infinite doses, Hill equation)” value under setting [2] is listed as 29.1.

Take `CC(C)(C)c1nc(-c2cccc(NS(=O)(=O)c3c(F)cccc3F)c2F)c(-c2ccnc(N)n2)s1` [Dabrafenib]: the Emax under setting [3] came to 22% and the Emax under setting [5] was 21.7%. The AC50 under setting [4] is 14.8 µM.

For the molecule `COc1cccc(CNC(=O)Nc2nc(-c3ccncc3)cs2)c1` [1-(3-methoxybenzyl)-3-(4-(pyridin-4-yl)thiazol-2-yl)urea], the Emax is, setting by setting: under setting [3], 124%; under setting [5], 121%. In addition, the AC50 under setting [4] came out at 0.147 µM.

Take `NC[C@@](O)(c1ccc(Cl)cc1)c1ccc(-c2cn[nH]c2)cc1` [AT-13148]: the Emax was 89.8% under setting [3] and 64.5% under setting [5]. The AC50 under setting [4] turned out to be 0.104 µM.

As for `CCn1c(-c2nonc2N)nc2cnc(Oc3cccc(NC(=O)c4ccc(OCCN5CCOCC5)cc4)c3)cc21` [GSK-269962A], the “Max (maximum activity value from all tested concentrations)” value under setting [1] is reported as 133.3%. Moreover, the AC50 (H9 cell survival) came out at 11.8 µM. For the same molecule, the “Efficacy (activity range between predicted activities at zero and infinite doses, Hill equation)” value under setting [2] was 106.

As to `Cl.NC(N)=NCCNS(=O)(=O)c1cccc2cnccc12` [HA-1004 hydrochloride], under setting [1], the “Max (maximum activity value from all tested concentrations)” value stood at 50.05%. Also, the AC50 (H9 cell survival) was determined as 5.17 µM. Besides, under setting [2], the “Efficacy (activity range between predicted activities at zero and infinite doses, Hill equation)” value is 50.

Regarding `O=C(Nc1ccc(-c2ccnc(Nc3ccc(N4CCOCC4)cc3)n2)cc1)[C@@H]1CCCN1` [XL-19], under setting [1], the “Max (maximum activity value from all tested concentrations)” value was determined as 29.98%. Further, the AC50 (H9 cell survival) is 23.3 µM. Moreover, under setting [2], the “Efficacy (activity range between predicted activities at zero and infinite doses, Hill equation)” value is 35.5.

For the molecule `CCn1c(-c2nonc2N)nc2c(C#CCO)ncc(OCCCN)c21` [AKT Kinase Inhibitor], under setting [1], the “Max (maximum activity value from all tested concentrations)” value came out at 46.89%. The “Efficacy (activity range between predicted activities at zero and infinite doses, Hill equation)” value under setting [2] was 0.

In the case of `CNc1nccc(-c2cccnc2Oc2cc(C(=O)Nc3cccc(C(F)(F)F)c3)ccc2C)n1` [AMG-Tie2-1], under setting [1], the “Max (maximum activity value from all tested concentrations)” value is reported as 57.84%. In addition, the AC50 (H9 cell survival) was found to be 18.7 µM. Further, under setting [2], the “Efficacy (activity range between predicted activities at zero and infinite doses, Hill equation)” value is on record as 54.5.

Take `Cc1cccc(NC(=O)c2ccc(C(F)(F)F)cc2C(=O)O)n1` [AF38469]: the “Max (maximum activity value from all tested concentrations)” value under setting [1] is 22.96%. Also, the AC50 (H9 cell survival) amounted to 5.21 µM. Also, under setting [2], the “Efficacy (activity range between predicted activities at zero and infinite doses, Hill equation)” value is 29.6.

With `C=C(CO)C(=O)O[C@H]1CC(=C)[C@@H]2C[C@H](O)C(=C)[C@@H]2[C@H]2OC(=O)C(=C)[C@@H]21` [NCGC00168845-02], the “Max (maximum activity value from all tested concentrations)” value under setting [1] is listed as 21.8%. For the setting “H9 cell survival”, the AC50 is 3.61 µM. In addition, the “Efficacy (activity range between predicted activities at zero and infinite doses, Hill equation)” value under setting [2] is given as 27.1.

As to `COc1ccccc1-c1c[nH]c2ncc(-c3cncc(C(=O)N(C)C)c3)cc12` [PPY A], the “Max (maximum activity value from all tested concentrations)” value under setting [1] is given as 37.42%. For the same molecule, under “H9 cell survival”, the AC50 turned out to be 2.93 µM. The “Efficacy (activity range between predicted activities at zero and infinite doses, Hill equation)” value under setting [2] is 41.9.

With `N#CC[C@H](C1CCCC1)n1cc(-c2ncnc3[nH]ccc23)cn1` [Ruxolitinib], where the note is “H9 cell survival”, the AC50 is 8.26 µM and 11.8 µM.

With `Cc1cc(Nc2cc(NC(=O)c3c(Cl)cccc3Cl)ccn2)nc(N)n1` [RO495], the “Max (maximum activity value from all tested concentrations)” value under setting [1] is on record as 89.28%. For the same molecule, for the setting “H9 cell survival”, the AC50 is 4.69 µM. Further, the “Efficacy (activity range between predicted activities at zero and infinite doses, Hill equation)” value under setting [2] is 73.1.

Consider `Cl.O=c1[nH]c([C@@H]2CCCN2)nc2c1oc1ccc(Cl)cc12` [BMS-863233 (XL-413)], for which the “Max (maximum activity value from all tested concentrations)” value under setting [1] is given as 22.03%. For the same molecule, the AC50 (H9 cell survival) came to 26.1 µM. For the same molecule, the “Efficacy (activity range between predicted activities at zero and infinite doses, Hill equation)” value under setting [2] is 28.3.

As to `C=C1[C@@H](C)[C@H]2[C@H](Cc3ccccc3)NC(=O)[C@]23OC(=O)/C=C/[C@H](O)CCC[C@@H](C)C/C=C/[C@H]3[C@@H]1O` [Cytochalasin B], the “Max (maximum activity value from all tested concentrations)” value under setting [1] was determined as 14.14%. Where the note is “H9 cell survival”, the AC50 was determined as 7.5 µM. Also, under setting [2], the “Efficacy (activity range between predicted activities at zero and infinite doses, Hill equation)” value is 43.2.

Consider `N#CC[C@H](C1CCCC1)n1cc(-c2ncnc3[nH]ccc23)cn1` [Ruxolitinib, Freebase, Ruxolitinib], for which, under setting [1], the “Max (maximum activity value from all tested concentrations)” value is recorded as 87.05%. Moreover, under setting [2], the “Efficacy (activity range between predicted activities at zero and infinite doses, Hill equation)” value is on record as 48. The AC50 under setting [4] amounted to 10.4 µM.

On to `CN(C)CCOc1cc(-c2cn[nH]c2)ccc1NC(=O)C1COc2ccccc2O1` (stereo not drawn) [SR-3677], for which the AC50 is, setting by setting: (H9 cell survival) 0.662 µM; under setting [4], 0.585 µM. Besides, the Emax is 122% under setting [3] and 118% under setting [5].

With `CN1CCN(Cc2ccc(-c3cnc4[nH]cc(-c5ccc6[nH]ccc6c5)c4c3)cc2)CC1` [URMC-099], the Emax is 27.1% under setting [3] and 33.6% under setting [5]. The AC50 under setting [4] was 5.21 µM.

Turning to `Cc1cc2c(cc1CC(=O)c1sccc1S(=O)(=O)[N-]c1onc(C)c1Cl)OCO2.[Na+]` [Sitaxenian sodium], the “Max (maximum activity value from all tested concentrations)” value under setting [1] is listed as 21.69%. For the setting “H9 cell survival”, the AC50 came to 26.1 µM. The “Efficacy (activity range between predicted activities at zero and infinite doses, Hill equation)” value under setting [2] is listed as 27.1.

Turning to `Cc1n[nH]c2ccc(-c3cncc(OC[C@@H](N)Cc4c[nH]c5ccccc45)c3)cc12` [A-443654], the Emax by setting is: under setting [3], 39.8%; under setting [5], 0%.

`Cl.Cl.Fc1ccccc1CNCc1ccc(-c2ccnc3[nH]ccc23)cc1` [OXA 06 dihydrochloride]: under setting [1], the “Max (maximum activity value from all tested concentrations)” value stood at 108.2%. For the same molecule, where the note is “H9 cell survival”, the AC50 stood at 0.736 µM. For the same molecule, the “Efficacy (activity range between predicted activities at zero and infinite doses, Hill equation)” value under setting [2] is 110.
